Measurements taken from PubChem BioAssay (NCI).
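The compound was tested at five concentrations on cells cultured in 96-well plates, with a 48-hour exposure period. Here, GI50 denotes the concentration required for 50% inhibition of growth. TGI marks complete inhibition of growth.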

Columns and labels:
Test in all cases: DTP human tumour cell line panel, 48 h
[1] = system: HOP-92 NSCLC
[2] = system: SK-MEL-5 melanoma
[3] = system: UACC-257 melanoma
[4] = system: EKVX NSCLC
[5] = system: RPMI-8226 leukemia
[6] = system: MDA-MB-231 breast
[7] = system: OVCAR-3 ovarian
[8] = system: ACHN renal
[9] = system: SN12C renal
[10] = system: CCRF-CEM leukemia
[11] = system: IGROV1 ovarian
[12] = system: OVCAR-8 ovarian
[13] = system: HT29 colon
[14] = system: HCT-15 colon
[15] = system: SW-620 colon
[16] = system: 786-0 renal
[17] = system: HCC-2998 colon
[18] = system: M14 melanoma
[19] = system: NCI-H522 lung
[20] = system: NCI-H23 lung
[21] = system: K-562 leukemia
[22] = system: SNB-19 CNS
[23] = system: LOX IMVI melanoma
[24] = system: SK-MEL-2 melanoma
[25] = system: PC-3 prostate
[26] = system: OVCAR-5 ovarian
[27] = system: SF-295 CNS
[28] = system: UO-31 renal
[29] = system: MDA-N
[30] = system: A549 NSCLC
[31] = system: KM12 colon
[32] = system: UACC-62 melanoma
[33] = system: TK-10 renal
[34] = system: MDA-MB-435
[35] = system: OVCAR-4 ovarian
[36] = system: COLO 205 colon
[37] = system: NCI-H460 lung
[38] = system: U251 CNS
[39] = system: DU-145 prostate
[40] = system: SNB-75 CNS
[41] = system: BT-549 breast
[42] = system: HS 578T breast
[43] = system: CAKI-1 renal
[44] = system: SR leukemia
[45] = system: NCI/ADR-RES ovarian
[46] = system: HOP-62 NSCLC
[47] = system: SF-539 CNS
[48] = system: T-47D breast
[49] = system: HL-60(TB) leukemia
[50] = system: HCT-116 colon
[51] = system: MCF7 breast
[52] = system: SF-268 CNS
[53] = system: MOLT-4 leukemia
[54] = system: SK-MEL-28 melanoma
[55] = system: SK-OV-3 ovarian
[56] = system: RXF 393 renal
[57] = system: NCI-H226 lung
[58] = system: MALME-3M melanoma
[59] = system: A498 renal

In the case of c1cc(CSP234N5CCN2CCN3CCN4CC5)cc(CSP234N5CCN2CCN3CCN4CC5)c1, the TGI [1] is reported as 64.5 µM, the TGI [2] is reported as 45.5 µM and the TGI [3] is reported as 34.9 µM. The TGI [4] was > 100 µM, the TGI [5] was > 100 µM and the TGI [6] was 38.2 µM. For the same compound, the TGI [7] was > 100 µM, the TGI [8] was > 100 µM and the TGI [9] was > 100 µM. It also gave a TGI [10] of 62.3 µM, a TGI [11] of 76.6 µM and a TGI [12] of 41.9 µM. The TGI [13] was 61 µM, the TGI [14] was 70.8 µM and the TGI [15] was > 100 µM. The TGI [16] was > 100 µM, the TGI [17] was 57.5 µM and the TGI [18] was 49 µM. The TGI [19] was 43.1 µM, the TGI [20] was > 100 µM and the TGI [21] was > 100 µM. The TGI [22] was > 100 µM, the TGI [23] was 35.1 µM and the TGI [24] was 45.1 µM. The TGI [25] was > 100 µM, the TGI [26] was > 100 µM and the TGI [27] was 46.2 µM. For the same compound, the TGI [28] was 39.3 µM, the TGI [29] was 79.9 µM and the TGI [30] was > 100 µM. For the same compound, the TGI [31] was 47.1 µM, the TGI [32] was 36.6 µM and the TGI [33] was > 100 µM. For the same compound, the TGI [34] was 59.3 µM, the TGI [35] was > 100 µM and the TGI [36] was 49.9 µM. For the same compound, the TGI [37] was > 100 µM, the TGI [38] was 56.2 µM and the TGI [39] was > 100 µM. For the same compound, the TGI [40] was 76.4 µM, the TGI [41] was 51.6 µM and the TGI [42] was 69.3 µM. The TGI [43] was > 100 µM, the TGI [44] was 28.2 µM and the TGI [45] was > 100 µM. For the same compound, the TGI [46] was > 100 µM, the TGI [47] was 55.5 µM and the TGI [48] was > 100 µM. For the same compound, the TGI [49] was 28.1 µM, the TGI [50] was > 100 µM and the TGI [51] was 68.6 µM. For the same compound, the TGI [52] was > 100 µM, the TGI [53] was 49.5 µM and the TGI [54] was 44.6 µM.

In the case of Cc1n[nH]c(=O)c2c3c([nH]c12)-c1ccccc1C3, the TGI [1] is reported as > 100 µM, the TGI [2] is reported as > 100 µM and the TGI [3] is reported as > 100 µM. For the same compound, the TGI [4] was > 100 µM, the TGI [5] was > 100 µM and the TGI [6] was > 100 µM. The TGI [7] was > 100 µM, the TGI [8] was > 100 µM and the TGI [9] was > 100 µM. For the same compound, the TGI [10] was > 100 µM, the TGI [11] was > 100 µM and the TGI [12] was > 100 µM. For the same compound, the TGI [13] was > 100 µM, the TGI [14] was > 100 µM and the TGI [15] was > 100 µM. For the same compound, the TGI [16] was > 100 µM, the TGI [55] was > 100 µM and the TGI [18] was > 100 µM. The TGI [19] was > 100 µM, the TGI [20] was > 100 µM and the TGI [21] was > 100 µM. For the same compound, the TGI [22] was > 100 µM, the TGI [23] was > 100 µM and the TGI [24] was > 100 µM. The TGI [25] was > 100 µM, the TGI [26] was > 100 µM and the TGI [56] was > 100 µM. The TGI [27] was > 100 µM, the TGI [28] was > 100 µM and the TGI [29] was > 100 µM. The TGI [30] was > 100 µM, the TGI [31] was > 100 µM and the TGI [33] was > 100 µM. The TGI [34] was > 100 µM, the TGI [57] was > 100 µM and the TGI [35] was > 100 µM. For the same compound, the TGI [36] was > 100 µM, the TGI [37] was > 100 µM and the TGI [38] was > 100 µM. For the same compound, the TGI [39] was > 100 µM, the TGI [40] was 66.6 µM and the TGI [41] was > 100 µM. For the same compound, the TGI [42] was > 100 µM, the TGI [58] was > 100 µM and the TGI [43] was > 100 µM. The TGI [44] was > 100 µM, the TGI [45] was > 100 µM and the TGI [46] was > 100 µM. The TGI [47] was > 100 µM, the TGI [48] was > 100 µM and the TGI [50] was > 100 µM. The TGI [51] was > 100 µM, the TGI [52] was > 100 µM and the TGI [53] was > 100 µM. For the same compound, the TGI [59] was > 100 µM and the TGI [54] was > 100 µM.

In the case of CCc1ccc([OH2+])c(C(=O)[O-])c1.CCc1ccc([OH2+])c(C(=O)[O-])c1.CCc1ccc([OH2+])c(C(=O)[O-])c1.CCc1ccc([OH2+])c(C(=O)[O-])c1.[Cu+2].[Cu+2], the GI50 [1] is reported as > 95.9 µM, the TGI [1] is reported as > 100 µM and the GI50 [2] is reported as 17.6 µM. The TGI [2] was 42.9 µM, the GI50 [3] was > 100 µM and the TGI [3] was > 100 µM. For the same compound, the GI50 [4] was > 100 µM, the TGI [4] was > 100 µM and the GI50 [5] was 41.3 µM. For the same compound, the TGI [5] was > 100 µM, the GI50 [6] was > 100 µM and the TGI [6] was > 100 µM. For the same compound, the GI50 [7] was 36.5 µM, the TGI [7] was > 100 µM and the GI50 [8] was > 100 µM. For the same compound, the TGI [8] was > 100 µM, the GI50 [9] was 98.3 µM and the TGI [9] was > 100 µM. For the same compound, the GI50 [11] was > 69.6 µM, the TGI [11] was > 100 µM and the GI50 [12] was 5.59 µM. For the same compound, the TGI [12] was > 100 µM, the GI50 [13] was 44.7 µM and the TGI [13] was > 100 µM. For the same compound, the GI50 [14] was > 88.2 µM, the TGI [14] was > 100 µM and the GI50 [15] was > 100 µM. The TGI [15] was > 100 µM, the GI50 [16] was > 100 µM and the TGI [16] was > 100 µM. The GI50 [17] was 64.8 µM, the TGI [17] was > 100 µM and the GI50 [55] was 23.9 µM. For the same compound, the TGI [55] was > 68.2 µM, the GI50 [18] was > 100 µM and the TGI [18] was > 100 µM. The GI50 [19] was > 86 µM, the TGI [19] was > 100 µM and the GI50 [20] was > 100 µM. For the same compound, the TGI [20] was > 100 µM, the GI50 [21] was 38.1 µM and the TGI [21] was > 73.9 µM. The GI50 [22] was 36.8 µM, the TGI [22] was > 61.8 µM and the GI50 [23] was > 100 µM. For the same compound, the TGI [23] was > 100 µM, the GI50 [24] was > 91.3 µM and the TGI [24] was > 100 µM. For the same compound, the GI50 [25] was > 70.5 µM, the TGI [25] was > 100 µM and the GI50 [26] was 32.3 µM. For the same compound, the TGI [26] was 70.2 µM, the GI50 [56] was > 46.8 µM and the TGI [56] was > 94.5 µM. The GI50 [27] was 50.8 µM, the TGI [27] was > 100 µM and the GI50 [28] was > 100 µM. The TGI [28] was > 100 µM, the GI50 [29] was > 71.1 µM and the TGI [29] was > 100 µM. The GI50 [30] was 38.6 µM, the TGI [30] was > 100 µM and the GI50 [31] was 53.6 µM. The TGI [31] was > 100 µM, the GI50 [32] was 70.5 µM and the TGI [32] was > 100 µM. The GI50 [33] was > 85.8 µM, the TGI [33] was > 100 µM and the GI50 [34] was 49.3 µM. For the same compound, the TGI [34] was > 100 µM, the GI50 [57] was > 50.2 µM and the TGI [57] was > 100 µM. The GI50 [35] was 28.3 µM, the TGI [35] was > 100 µM and the GI50 [36] was > 100 µM. For the same compound, the TGI [36] was > 100 µM, the GI50 [37] was 52.6 µM and the TGI [37] was > 100 µM. For the same compound, the GI50 [38] was > 59.9 µM, the TGI [38] was > 100 µM and the GI50 [39] was 70.1 µM. For the same compound, the TGI [39] was > 100 µM, the GI50 [40] was 40.6 µM and the TGI [40] was > 89.3 µM. The GI50 [41] was 78.6 µM, the TGI [41] was > 100 µM and the GI50 [42] was > 100 µM. For the same compound, the TGI [42] was > 100 µM, the GI50 [58] was > 100 µM and the TGI [58] was > 100 µM. For the same compound, the GI50 [43] was 24.9 µM, the TGI [43] was > 82.4 µM and the GI50 [44] was 24.5 µM. For the same compound, the TGI [44] was > 100 µM, the GI50 [45] was 17.3 µM and the TGI [45] was > 100 µM. For the same compound, the GI50 [46] was > 100 µM, the TGI [46] was > 100 µM and the GI50 [47] was > 100 µM. For the same compound, the TGI [47] was > 100 µM, the GI50 [48] was > 100 µM and the TGI [48] was > 100 µM. For the same compound, the GI50 [49] was 2.4 µM, the TGI [49] was > 44.4 µM and the GI50 [50] was > 100 µM. For the same compound, the TGI [50] was > 100 µM, the GI50 [51] was 35 µM and the TGI [51] was > 100 µM. The GI50 [52] was > 100 µM, the TGI [52] was > 100 µM and the GI50 [53] was 34.2 µM. For the same compound, the TGI [53] was > 100 µM, the GI50 [59] was 21.2 µM and the TGI [59] was 40.5 µM. For the same compound, the GI50 [54] was > 100 µM and the TGI [54] was > 100 µM.
